ChEMBL document CHEMBL1150001, “A rationale for the design and synthesis of m1 selective muscarinic agonists” (Bioorg Med Chem Lett, 1992)
Changes are numbered by the printed parent chain. Calls of active or inactive are those of the source. The calls are words filed in the database; no cut-off is given here.

What was measured:
[1] = target: Muscarinic acetylcholine receptors; M1 & M2 (Homo sapiens) (UniProt P11229+P08172); assay: Selectivity ratio for m1 over m2 muscarinic receptors was determined; NA=Not active; format: protein assay
[2] = target: T1, Muscarinic acetylcholine receptor M1 (Homo sapiens, UniProt P11229); assay: Compound was evaluated for its inhibitory activity against human Muscarinic acetylcholine receptor M1 using [3H]quinuclidinyl benzilate to label antagonist site (RQNB) in CHO cells; NA=Not active; format: cell-based
T1 sequence (P11229 whole entry): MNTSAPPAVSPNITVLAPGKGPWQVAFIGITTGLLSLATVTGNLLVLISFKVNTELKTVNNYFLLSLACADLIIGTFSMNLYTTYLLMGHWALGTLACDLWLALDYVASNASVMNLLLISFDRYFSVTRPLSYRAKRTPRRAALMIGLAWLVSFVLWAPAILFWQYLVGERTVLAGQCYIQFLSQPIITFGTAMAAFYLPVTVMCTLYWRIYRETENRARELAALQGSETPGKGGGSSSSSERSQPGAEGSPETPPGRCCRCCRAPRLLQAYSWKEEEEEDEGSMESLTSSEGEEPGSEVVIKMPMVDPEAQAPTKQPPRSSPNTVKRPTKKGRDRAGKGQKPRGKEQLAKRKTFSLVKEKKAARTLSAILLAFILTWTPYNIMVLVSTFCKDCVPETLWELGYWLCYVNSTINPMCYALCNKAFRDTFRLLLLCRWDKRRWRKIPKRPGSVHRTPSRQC

[3] = target: Muscarinic acetylcholine receptor; assay: Compound was evaluated for inhibition of [3H]cis-methyldioxolane binding to label agonist sites (RCMD) in rat neocortex
[4] = target: T2, Muscarinic receptor M1 and M2 (Rattus norvegicus, UniProt P08482+P10980); assay: Compound was evaluated for its inhibition of [3H]quinuclidinyl benzilate binding to label antagonist site (RQNB) in rat neocortex
T2 sequence (P08482 whole entry): T1 sequence (P11229 whole entry) with A5V, T254S, P309S, R320K, A337G, I413V
T2 sequence (P10980 whole entry): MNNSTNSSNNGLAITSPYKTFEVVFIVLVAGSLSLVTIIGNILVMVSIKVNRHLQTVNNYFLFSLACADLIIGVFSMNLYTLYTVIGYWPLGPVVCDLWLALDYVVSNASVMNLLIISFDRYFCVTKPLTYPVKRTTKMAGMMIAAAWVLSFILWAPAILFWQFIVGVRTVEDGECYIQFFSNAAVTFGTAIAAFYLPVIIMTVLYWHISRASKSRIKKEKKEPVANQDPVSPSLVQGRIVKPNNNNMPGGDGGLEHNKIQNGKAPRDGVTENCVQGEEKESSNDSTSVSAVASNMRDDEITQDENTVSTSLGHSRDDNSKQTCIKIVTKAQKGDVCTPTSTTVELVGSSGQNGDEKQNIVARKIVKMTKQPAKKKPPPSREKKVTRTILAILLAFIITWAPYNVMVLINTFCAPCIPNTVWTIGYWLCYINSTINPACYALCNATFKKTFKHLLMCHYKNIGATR

[5] = target: T3, Muscarinic acetylcholine receptor M2 (Homo sapiens, UniProt P08172); assay: Compound was evaluated for inhibitory activity against human Muscarinic acetylcholine receptor M2 using [3H]quinuclidinyl benzilate to label antagonist site (RQNB) in CHO cells; NA: Not active; format: cell-based
T3 sequence (P08172 whole entry): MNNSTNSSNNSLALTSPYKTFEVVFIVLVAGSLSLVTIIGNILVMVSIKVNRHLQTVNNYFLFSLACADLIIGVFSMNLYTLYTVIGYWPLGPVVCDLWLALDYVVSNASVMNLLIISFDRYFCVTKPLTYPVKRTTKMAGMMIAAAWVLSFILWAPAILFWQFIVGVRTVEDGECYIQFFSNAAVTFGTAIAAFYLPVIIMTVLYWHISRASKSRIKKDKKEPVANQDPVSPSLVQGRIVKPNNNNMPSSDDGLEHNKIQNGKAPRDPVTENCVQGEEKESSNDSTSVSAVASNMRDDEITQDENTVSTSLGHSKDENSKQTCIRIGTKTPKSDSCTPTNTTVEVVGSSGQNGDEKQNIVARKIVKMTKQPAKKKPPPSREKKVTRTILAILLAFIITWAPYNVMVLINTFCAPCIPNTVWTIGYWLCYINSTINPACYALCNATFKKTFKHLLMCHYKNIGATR

[6] = target: T4, Muscarinic acetylcholine receptor M3 (Homo sapiens, UniProt P20309); assay: Evaluated for its MIPA (muscarinic-stimulated inositol phosphate accumulation) activity measured in SK-N-SH neuroblastoma cells expressing human muscarinic m3 receptor, compound run at 100 uM;100 uM of carbachol was used; format: functional, cell-based
Target sequence in this assay (P20309 whole entry, looked up): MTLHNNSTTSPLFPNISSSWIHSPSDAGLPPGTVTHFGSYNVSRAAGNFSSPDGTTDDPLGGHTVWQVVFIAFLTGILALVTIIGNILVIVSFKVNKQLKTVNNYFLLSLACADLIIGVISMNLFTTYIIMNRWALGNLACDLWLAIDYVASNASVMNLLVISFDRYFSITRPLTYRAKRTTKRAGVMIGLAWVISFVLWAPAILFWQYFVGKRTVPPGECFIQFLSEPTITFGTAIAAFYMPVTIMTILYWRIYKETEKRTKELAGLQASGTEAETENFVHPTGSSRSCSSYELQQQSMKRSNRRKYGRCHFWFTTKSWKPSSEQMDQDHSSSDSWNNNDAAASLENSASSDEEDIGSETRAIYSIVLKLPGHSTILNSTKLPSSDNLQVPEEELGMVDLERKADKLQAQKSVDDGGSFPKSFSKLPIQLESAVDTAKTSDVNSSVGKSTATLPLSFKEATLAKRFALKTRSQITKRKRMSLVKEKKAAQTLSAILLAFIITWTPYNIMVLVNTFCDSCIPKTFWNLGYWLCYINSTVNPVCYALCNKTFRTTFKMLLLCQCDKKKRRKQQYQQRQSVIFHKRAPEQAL

[7] = target: T4, Muscarinic acetylcholine receptor M3; format: functional, cell-based, SK-N-SH
Target sequence in this assay (P20309 whole entry): as the sequence (P20309 whole entry, looked up) above
Description: Effective concentration for MIPA (muscarinic-stimulated inositol phosphate accumulation) activity in SK-N-SH neuroblastoma cells expressing human muscarinic M3 receptor

[8] = target: T1, Muscarinic acetylcholine receptor M1; assay: Compound was evaluated for its inhibitory activity against human Muscarinic acetylcholine receptor M1 using [3H]quinuclidinyl benzilate to label antagonist site (RQNB) in CHO cells; Not active; format: cell-based
[9] = target: T3, Muscarinic acetylcholine receptor M2; assay: Compound was evaluated for inhibitory activity against human Muscarinic acetylcholine receptor M2 using [3H]quinuclidinyl benzilate to label antagonist site (RQNB) in CHO cells; Not active; format: cell-based
[10] = target: T5, Muscarinic acetylcholine receptor M1 (Homo sapiens) (UniProt P11229); details: CHO; at 100 µM
T5 sequence (whole entry): T1 sequence (P11229 whole entry)
Description: Evaluated for its HMPA (human muscarinic inositol phosphate accumulation) activity measured in CHO cells expressing Muscarinic acetylcholine receptor M1 compound run at 100 uM

[11] = target: T1, Muscarinic acetylcholine receptor M1; format: functional, cell-based, CHO
Description: Inhibitory activity against human Muscarinic acetylcholine receptor M1 using [3H]quinuclidinyl benzilate to label antagonist site (RQNB) in CHO cells

[12] = target: T3, Muscarinic acetylcholine receptor M2; assay: Inhibitory activity against human Muscarinic acetylcholine receptor M2 using [3H]quinuclidinyl benzilate to label antagonist site (RQNB) in CHO cells; format: cell-based
[13] = target: T1, Muscarinic acetylcholine receptor M1; format: functional, cell-based, CHO; remark: listed apart in the source
Description: Effective concentration for HMPA (human muscarinic inositol phosphate accumulation) activity measured in CHO cells expressing Muscarinic acetylcholine receptor M1

[14] = target: T3, Muscarinic acetylcholine receptor M2; assay: Compound was evaluated for inhibitory activity for Muscarinic acetylcholine receptor M2 using [3H]quinuclidinyl benzilate to label antagonist site (RQNB) in CHO cells; format: cell-based
[15] = target: T4, Muscarinic acetylcholine receptor M3; assay: Evaluated for its MIPA (muscarinic-stimulated inositol phosphate accumulation) activity measured in SK-N-SH neuroblastoma cells expressing human m3 receptor, compound run at 100 uM;100 uM of carbachol was used; format: functional, cell-based
Target sequence in this assay (P20309 whole entry, looked up): as above

Compound | Ratio [1] | IC50 [2] | IC50 [3] [µM] | IC50 [4] [µM] | IC50 [5] | CCh [6] [%] | EC50 [7] [µM] | IC50 [8] | IC50 [9] | CCh [10] [%] | IC50 [11] [µM] | IC50 [12] [µM] | EC50 [13] [µM] | IC50 [14] [µM] | CCh [15] [%]
C#CCCCO/N=C1\CN2CCC1C2 (stereo not drawn) | inactive | Not Active | 0.111 | 3.655 | Not Active | – | – | – | – | – | – | – | – | – | –
CCO/N=C1\CN2CCC1C2 (stereo not drawn) | – | – | 0.0125 | 3.112 | – | 19 | 8.9 | – | – | – | – | – | – | – | –
O/N=C1\CN2CCC1C2 (stereo not drawn) | – | – | > 0.1 | > 1 | – | – | – | Not Active | Not Active | – | – | – | – | – | –
C#CCC#CCO/N=C1\CN2CCC1C2 (stereo not drawn) | – | – | – | 8.834 | – | 14 | 16.4 | – | – | 79 | 10 | 2.84 | 4.7 | – | –
C=CCC#CCO/N=C1\CN2CCC1C2 (stereo not drawn) | – | – | 0.032 | 7.313 | – | – | – | – | – | – | 9.44 | 15.9 | – | – | –
CC(C)O/N=C1\CN2CCC1C2 (stereo not drawn) | – | – | 0.046 | 2.03 | – | – | – | – | – | – | 2.61 | 3.15 | – | – | –
CCCCC#CCO/N=C1\CN2CCC1C2 (stereo not drawn) | – | – | 0.044 | 6.045 | – | – | – | – | – | – | 7.89 | 9.65 | – | – | –
CC(C)(C)O/N=C1\CN2CCC1C2 (stereo not drawn) | – | – | 0.091 | 3.54 | – | – | – | – | – | – | 3.84 | 4.46 | – | – | –
C#C/C=C/CO/N=C1\CN2CCC1C2 (stereo not drawn) | – | – | – | 13.85 | – | – | – | – | – | – | 12.6 | 30.2 | – | – | –
C1CC(O/N=C2\CN3CCC2C3)C1 (stereo not drawn) | – | – | 0.088 | 1.156 | – | – | – | – | – | – | 1.11 | 1.63 | – | – | –
C#CCCO/N=C1\CN2CCC1C2 (stereo not drawn) | – | – | 0.083 | 9.806 | – | – | – | – | – | – | 14.5 | 15.6 | – | – | –
C#CCC#CCC#CCO/N=C1\CN2CCC1C2 (stereo not drawn) | – | – | – | 0.958 | – | 0 | – | – | – | 50 | 2.03 | 2.18 | 5.1 | – | –
CC#CCC#CCO/N=C1\CN2CCC1C2 (stereo not drawn) | – | – | 0.039 | 2.914 | – | 2 | – | – | – | 81 | 5.68 | 5.08 | 5.05 | – | –
C(#Cc1ccccc1)CO/N=C1\CN2CCC1C2 (stereo not drawn) | – | – | – | 5.012 | – | 11 | – | – | – | 76 | 5.42 | 25.8 | 3.3 | – | –
C#CC(C)O/N=C1\CN2CCC1C2 (stereo not drawn) | – | – | 0.035 | 3.984 | – | – | – | – | – | – | 3.69 | 5.28 | – | – | –
CCCC#CCO/N=C1\CN2CCC1C2 (stereo not drawn) | – | – | 0.048 | 8.689 | – | – | – | – | – | – | 9.64 | – | – | 20.6 | –
CC#CCO/N=C1\CN2CCC1C2 (stereo not drawn) | – | – | 0.004 | 4.214 | – | – | 8.8 | – | – | 63 | 5.81 | 1.7 | 1.9 | – | 49
C#CCO/N=C1\CN2CCC1C2 (stereo not drawn) | – | – | – | 4.359 | – | 51 | 8.4 | – | – | 104 | 9.51 | 1.04 | 0.89 | – | –
CCCO/N=C1\CN2CCC1C2 (stereo not drawn) | – | – | 0.12 | 0.032 | – | 3 | – | – | – | 44 | 3.68 | 3.98 | 27 | – | –
Nc1noc(C2CN3CCC2C3)n1 (stereo not drawn) [OXADIAZOLE] | – | – | 0.0003 | 0.088 | – | 0.269 | 104 | – | – | 293 | 0.4 | 0.02 | 100 | – | –
C[N+](C)(C)CC#CCOC(=O)Nc1cccc(Cl)c1.[Cl-] | – | – | 0.025 | 5.304 | – | – | – | – | – | 57 | 4 | 12.9 | 3.5 | – | 3
CO/N=C1\CN2CCC1C2 (stereo not drawn) | – | – | – | 24.558 | – | 53 | 14.6 | – | – | – | 85 | 7.89 | – | – | –
COCC#CCO/N=C1\CN2CCC1C2 (stereo not drawn) | – | – | 0.055 | 35.434 | – | – | – | – | – | – | 42.4 | 59.3 | – | – | –
CCC#CCO/N=C1\CN2CCC1C2 (stereo not drawn) | – | – | 0.0036 | 5.976 | – | 56 | 9.6 | – | – | 72 | 4.9 | 8.6 | 5.9 | – | –
